Where two headings read alike, the source gives them in different places.
How the values were obtained:
[1] = tested on: kidney disease model rats; assay: Action to lower blood pressure in kidney disease model rats; assay type: in vivo, Sprague-Dawley female rats; settings: 20 mg/kg oral
Protocol: (§1) In this Example, an action to lower blood pressure was evaluated. That is, each of 2-ethoxy-1-[[4'- (2'-N,N-dimethylamino-ethoxycarbonyl) phenyl]methyl]-1H-benzimidazole-6-carboxylic acid morpholide (Compound No. 13) prepared in Example 6, 2-ethoxy-1-[[4'-(2"-morpholinoethoxycarbonyl)-phenyl]methyl]-1H-benzimidazole-6-carboxylic acid piperidinamide (Compound No. 57) prepared in Example 28, or the reference substance was forcibly orally administered to kidney disease model rats, and the action of lowering the blood pressure was observed. The kidney disease model rats were prepared by a ligature of branches of renal artery in accordance with a conventional method. Namely, the left hilum renalis of Sprague-Dawley female rats was exposed under anesthesia, and one of four secondary branches of the renal artery was left unligated, while the remaining three branches were ligated, respectively. After a week, the hilum renalis (artery, vein, and ureter) of the right kidney were further ligated to thereby prepare rats whose renal function was lowered to approximately 1/8 of the normal function. Each group consisted of eight rats. The drugs to be tested (20 mg/kg) were administered to each administering group, and only water was administered to a control group. Two days after the administration, the systolic blood pressure was measured by the tail cuff method using a blood pressure measuring apparatus (UR^5000; Ueda).

[2] = tested on: kidney disease model rats; assay: Action to kidney diseases, renal function indicatory values; assay type: in vivo, Sprague-Dawley female rats; settings: 20 mg/kg/day, two weeks
Protocol: The kidney disease model rats were prepared by a ligature of branches of renal artery in accordance with a conventional method. Namely, the left hilum renalis of Sprague-Dawley female rats was exposed under anesthesia, and one of four secondary branches of the renal artery was left unligated, while the remaining three branches were ligated, respectively. After a week, the hilum renalis (artery, vein, and ureter) of the right kidney were further ligated to thereby prepare rats whose renal function was lowered to approximately 1/8 of the normal function. Each group consisted of eight rats. The drugs to be tested (20 mg/kg) were administered to each administering group, and only water was administered to a control group. Two days after the administration, the systolic blood pressure was measured by the tail cuff method using a blood pressure measuring apparatus (UR^5000; Ueda).
In this Example, an action to kidney diseases was evaluated on the basis of a renal function indicatory value.
Fifteen groups (8 rats per group) were prepared in a manner such that there was no major difference between the groups in the serum creatinine value and the blood urea nitrogen value indicating renal function. The rats in each group were allowed to freely take up food and water. […] To the rats in the control group, only water was forcibly orally administered every day. After two weeks, 0.2 ml of blood was collected from the carotid artery of the rats under anesthesia, and centrifuged to obtain serum. Using 25 μl of the serum, the serum creatinine (Scr) was measured by a creatinine analytical instrument (Beckman). Using 10 μl of the serum, the blood urea nitrogen (BUN) was measured by a BUN analytical instrument (Beckman). The creatinine clearance was evaluated as follows:
After the serum creatinine measurement, rats were placed in urinary metabolic cages for 24 hours to collect urine. A urinary creatine concentration (Ucr) was measured by a creatinine analytical instrument, and a total volume of urination (Uvol) was also measured. The creatinine clearance (CCr) was calculated by the following formula: [formula]
In the above formula, the unit of "Ucr" and "Scr" is "mg/ml" and the unit of "Uvol" is "ml".

[3] = tested on: kidney disease model rats; assay: Survival time of kidney diseased animals; assay type: in vivo, Sprague-Dawley female rats; settings: 20 mg/kg/day; observation period eight weeks (upper limit); control 5.0
Protocol: as §1
In this Example, an action to survival time of kidney diseased animals was evaluated. As compounds to be examined, 2-ethoxy-1-[[4'-(2"-N,N-dimethylamino-ethoxycarbonyl)-phenyl]methyl]-1H-benzimidazole-6-carboxylic acid morpholide (Compound No. 13) prepared in Example 6, and 2-ethoxy-1-[[4'-(2"-morpholinoethoxycarbonyl)phenyl]methyl]-1H-benzimidazole-6-carboxylic acid piperidinamide (Compound No. 57) prepared in Example 28 were used.
The kidney disease model rats were prepared as in Example 38. Fifteen groups (8 rats per group) were prepared in a manner such that there was no major difference between the groups in the serum creatinine value and the blood urea nitrogen value indicating renal function. The rats in each group were allowed to freely take up food and water. […] To the rats in the control group, only water was forcibly orally administered every day. If kidney diseases are aggravated, the rat will die of uremia. Thus, the survival time was observed as a comprehensive indication of the improvement of the effect on the kidney diseases. The observation period was eight weeks. Thus if all rats survived, the average survival time is eight weeks, and is an upper limit.

[4] = tested on: rat suffering from a kidney disease; settings: J. Clinical Invest., 90: 766-771, 1992; cited from earlier work
[5] = tested on: rat suffering from hyperlipemia; settings: Nephron, 65: 426-432, 1993, cited from earlier work

Structure (SMILES): CCCCc1nc(Cl)c(CO)n1Cc1ccc(-c2ccccc2-c2nnn[nH]2)cc1 [DuP753, 2-butyl-4-chloro-5-(hydroxymethyl)-1-[[2'-(1H-tetrazole-5-yl)biphenyl-4-yl]methyl]imidazole, reference compound]
- action of lowering the blood pressure ([1]; in comparison with the control group): clearly exhibited the action of lowering the blood pressure
- Blood pressure ([1]; systolic, tail cuff, average, two days after administration, control 210): 130 mmHg
- Creatinine clearance ([2]; control 0.22): 0.32 mL/min
- Creatinine ([2]; serum, control 2.0): 1.6 mg/dL
- Blood urea nitrogen ([2]; serum, control 100): 80 mg/dL
- Average survival time [3]: 6.9 weeks
- effect in proteinuria and glomerulosclerosis [4]: effective in proteinuria and glomerulosclerosis
- lowering of the blood pressure [4]: explicit lowering of the blood pressure
- lowering of the blood pressure ([5]; higher dose): explicit lowering of the blood pressure
- renal lesion ([5]; higher dose): more effective in the renal lesion
- influence on the blood pressure ([5]; lower dose): without a substantial influence on the blood pressure
- renal lesion ([5]; lower dose): renal lesion is improved
